Source: patent US20170112940A1, “Modified Collagen Hybridizing Peptides And Uses Thereof” (University of Utah Research Foundation, priority 2015, published 2017)

How the values were obtained:
[1] = Melting temperature (melting curve) of the peptides in 1× PBS; format: physicochemical; conditions: FIG. 1
Description: The sample concentration tested is 200 uM. 7 is Ac-GPO-GPO-GPO-GPO-GPO-GPO-GPO (This is positive control). 7-1azGly is Ac-GPO-GPO-GPO-azGlyPO-GPO-GPO-GPO. 7-2azGly is Ac-GPO-GPO-azGlyPO-GPO-azGlyPO-GPO-GPO. Melting Temperature of 7 is 54° C. Melting Temperature of 7-1azGly is 65° C. Melting Temperature of 7-2azGly is 77° C.

gelatin = assay: Gelatin binding: peptide remaining on crosslinked gelatin film after binding and washing; conditions: FIG. 3
Description: 10: 10 μM added to crosslinked gelatin gel. […] 7 is CF-GGG-GPO-GPO-GPO-GPO-GPO-GPO-GPO (positive control). […] 7-2azGly is CF-GGG-GPO-GPO-azGlyPO-GPO-azGlyPO-GPO-GPO. Random9 is Scramble sequence of CF-GGG-(GPO)9 The sequence is CF-GGG-PGO-GPG-POP-OGO-GOP-PGO-OPG-GOO-PPG. (negative control).

Denatured Collagen = assay: Fluorescent staining of SDS-PAGE, denatured collagen lanes; format: binding; conditions: SDS-PAGE stained with 35 μM peptide, 5 ug and 10 ug denatured collagen (lanes 3 and 4), FIG. 4
Description: (§1) FIGS. 4A and 4B show A) Fluorescent image of SDS-PAGE stained with 35 μM of CFG3(GPO)3AzGPO(GPO)3; B) SDS-PAGE stained with Commassie Blue. Lane 1: MW marker, Lane 2: 50 ug BSA, Lane 3: 5 ug Denatured Collagen (col), Lane 4: 10 ug Denatured Collagen (col). Commasie blue (4B) stains collagen (Lanes 3 and 4) as well as BSA (lane 2).

BSA = BSA (Bos taurus, UniProt P02769); assay: Fluorescent staining of SDS-PAGE, BSA lane; format: binding; conditions: SDS-PAGE stained with 35 μM peptide, 50 ug BSA (lane 2), FIG. 4
Description: as §1

[2] = listed as CFG3(GPO)3AzGPO(GPO)3

BSA, sequence (P02769 25-607): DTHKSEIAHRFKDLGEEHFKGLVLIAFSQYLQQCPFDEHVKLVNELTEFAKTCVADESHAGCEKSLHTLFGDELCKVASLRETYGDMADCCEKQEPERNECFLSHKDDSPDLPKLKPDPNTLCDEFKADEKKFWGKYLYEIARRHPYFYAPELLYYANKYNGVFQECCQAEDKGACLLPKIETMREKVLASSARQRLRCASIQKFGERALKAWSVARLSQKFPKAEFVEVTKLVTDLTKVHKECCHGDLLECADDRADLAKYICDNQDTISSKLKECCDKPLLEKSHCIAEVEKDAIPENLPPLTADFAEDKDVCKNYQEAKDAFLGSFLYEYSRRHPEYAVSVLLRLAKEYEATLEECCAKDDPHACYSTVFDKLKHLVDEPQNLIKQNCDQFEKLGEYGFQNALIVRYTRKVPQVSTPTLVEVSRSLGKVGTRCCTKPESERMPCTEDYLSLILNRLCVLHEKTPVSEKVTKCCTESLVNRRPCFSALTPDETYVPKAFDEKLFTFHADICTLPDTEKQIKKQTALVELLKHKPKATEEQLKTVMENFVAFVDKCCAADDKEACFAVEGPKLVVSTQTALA

Row | Substance | triple helical structure indicated by sigmoidal shape of the melting curve [1] | binding affinity to gelatin (comparison in words) (gelatin) | also measured
1 | Ac-GPO-GPO-GPO-azGlyPO-GPO-GPO-GPO [7-1azGly] | has triple helical structure |  | 
2 | Ac-GPO-GPO-azGlyPO-GPO-azGlyPO-GPO-GPO [7-2azGly] | has triple helical structure |  | 
3 | CF-GGG-GPO-GPO-GPO-azGlyPO-GPO-GPO-GPO [7-1azGly] |  | much higher than GPO7 | staining of / binding to denatured collagen (Denatured Collagen; listed as Aza-CHP): binds to denatured collagen; staining of / binding to denatured collagen (Denatured Collagen; [2]): stains only collagen; staining of / binding to denatured BSA (BSA; listed as Aza-CHP): does not bind to denatured BSA; staining of / binding to denatured BSA (BSA; [2]): almost no signal from lane 2
4 | CF-GGG-GPO-GPO-azGlyPO-GPO-azGlyPO-GPO-GPO [7-2azGly] |  | further increases the binding affinity to gelatin | 
